Measured values published in DBAASP.
Converted amounts (≈) assume the structure as drawn. “And” between values parts separate entries of the source, which are not always exact repeats. Equal entries are not always repeated.

Columns and labels:
Test in all cases: ≥ marks a high value that may be exact or a test limit, other limits are often not marked, values filed in µg/mL are converted to µM
Bacillus megaterium Bm11 = system: Bacillus megaterium Bm11
[1] = system: Schizosaccharomyces pombe
[2] = system: Staphylococcus aureus ATCC 25923
[3] = system: Acinetobacter baumannii ATCC 19606
[4] = system: Pseudomonas aeruginosa ATCC 15692
Escherichia coli D21 = system: Escherichia coli D21
[5] = system: Streptococcus pyogenes ATCC 21547
[6] = system: Enterococcus faecalis ATCC 29212
Staphylococcus capitis 1 = system: Staphylococcus capitis 1
[7] = system: Pseudomonas syringae pv. tabaci 1918NCPPB
[8] = system: Staphylococcus aureus Cowan 1
Saccharomyces cerevisiae = system: Saccharomyces cerevisiae
[9] = system: Candida albicans ATCC 10231
[10] = system: Escherichia coli ATCC 25922
[11] = system: Yersinia pseudotuberculosis YPIII
Acinetobacter junii RT-4 = system: Acinetobacter junii RT-4
[12] = system: Staphylococcus epidermidis ATCC 12228
Candida albicans MDM8 = system: Candida albicans MDM8
Aspergillus niger = system: Aspergillus niger
[13] = system: Candida tropicalis IOC 45608
[14] = system: Candida glabrata IOC 4565
[15] = system: Candida parapsilosis IOC 456416
[16] = system: Candida albicans IOC 4558
Candida krusei IOC 4559 = system: Candida krusei IOC 4559
[17] = system: Streptococcus pyogenes ATCC 19615
Escherichia coli = system: Escherichia coli
[18] = system: Listeria monocytogenes NCTC 7973
Corynebacterium xerosis = system: Corynebacterium xerosis
[19] = system: Staphylococcus haemolyticus
Staphylococcus aureus = system: Staphylococcus aureus
Pseudomonas aeruginosa = system: Pseudomonas aeruginosa
[20] = system: Staphylococcus aureus SAP 0017
Staphylococcus aureus MR = system: Staphylococcus aureus MR
Salmonella typhimurium = system: Salmonella typhimurium
[21] = system: Staphylococcus epidermidis
Enterococcus faecalis = system: Enterococcus faecalis
[22] = system: Neisseria gonorrhoeae F-62
Candida albicans = system: Candida albicans
Listeria monocytogenes = system: Listeria monocytogenes
[23] = system: Neisseria gonorrhoeae FA-19
[24] = system: Escherichia coli IFO 12734
[25] = system: Staphylococcus aureus IFO 12732
[26] = system: Bacillus subtilis IFO 3513

CC[C@H](C)[C@H](NC(=O)[C@H](CCCN=C(N)N)NC(=O)CNC(=O)[C@H](CC(C)C)NC(=O)[C@H](Cc1ccccc1)NC(=O)[C@H](CCCCN)NC(=O)[C@H](CO)NC(=O)[C@H](Cc1ccccc1)NC(=O)[C@H](Cc1c[nH]c2ccccc12)NC(=O)[C@@H]1CCCN1C(=O)[C@H](CC(C)C)NC(=O)[C@@H](N)Cc1ccccc1)C(=O)N[C@@H](CC(C)C)C(N)=O [FLPWFSKFLGRIL] showed an MIC (Bacillus megaterium Bm11) of 3 µM (≈ 4.87 µg/mL), an MIC [1] of 6 µM (≈ 9.74 µg/mL) and an MIC [2] of 3 µM (≈ 4.87 µg/mL). For the same molecule, the MIC [3] was 12 µM (≈ 19.5 µg/mL), the MIC [4] was ≥ 48 µM and the MIC (Escherichia coli D21) was 24 µM (≈ 39 µg/mL). For the same molecule, the MIC [5] was 6 µM (≈ 9.74 µg/mL), the MIC [6] was 12 µM (≈ 19.5 µg/mL) and the MIC (Staphylococcus capitis 1) was 3 µM (≈ 4.87 µg/mL). For the same molecule, the MIC [7] was 12 µM (≈ 19.5 µg/mL), the MIC [8] was 3 µM (≈ 4.87 µg/mL) and the MIC (Saccharomyces cerevisiae) was 12 µM (≈ 19.5 µg/mL). The MIC [9] was 12 µM (≈ 19.5 µg/mL), the MIC [10] was 12 µM (≈ 19.5 µg/mL) and the MIC [11] was 6 µM (≈ 9.74 µg/mL). The MIC (Acinetobacter junii RT-4) was 12 µM (≈ 19.5 µg/mL) and the MIC [12] was 3 µM (≈ 4.87 µg/mL).
CC[C@H](C)[C@@H]1NC(=O)[C@H](C)NC(=O)[C@@H](NC(=O)[C@@H](NC(=O)[C@@H](N)Cc2ccccc2)[C@@H](C)O)CSSC[C@@H]2NC(=O)[C@H](CCCCN)NC(=O)[C@H](CCCCN)NC(=O)[C@H](CCC(=O)O)NC(=O)CNC(=O)[C@H](CO)NC(=O)CNC(=O)[C@H](CCCCN)NC(=O)[C@@H]3CSSC[C@@H](C(=O)N[C@H](C(=O)N[C@@H](CCCCN)C(=O)N[C@H](C(=O)O)C(C)C)C(C)C)NC(=O)[C@H](C(C)C)NC(=O)[C@H](CC(N)=O)NC(=O)[C@H](Cc4ccccc4)NC(=O)[C@H](CCCCN)NC(=O)[C@H](CSSC[C@H](NC(=O)[C@H](CO)NC1=O)C(=O)N[C@@H](CC(=O)O)C(=O)N[C@@H]([C@@H](C)CC)C(=O)N[C@@H](CCCCN)C(=O)N[C@@H](C(C)C)C(=O)N[C@@H](CC(N)=O)C(=O)NCC(=O)N[C@@H](CCCCN)C(=O)N1CCC[C@H]1C(=O)N3)NC(=O)[C@H](CO)NC(=O)[C@H](Cc1c[nH]c3ccccc13)NC(=O)CNC(=O)CNC(=O)[C@H](CO)NC2=O [FTCAISCDIKVNGKPCKGSGEKKCSGGWSCKFNVCVKV] showed an MIC (Candida albicans MDM8) of 3.54 µM (≈ 14.2 µg/mL), an MIC (Aspergillus niger) of 7.07 µM (≈ 28.3 µg/mL) and an MIC [13] of 3.54 µM (≈ 14.2 µg/mL). It also gave an MIC [14] of 3.54 µM (≈ 14.2 µg/mL), an MIC [15] of 3.54 µM (≈ 14.2 µg/mL) and an MIC [16] of 3.54 µM (≈ 14.2 µg/mL). For the same molecule, the MIC (Candida krusei IOC 4559) was 3.54 µM (≈ 14.2 µg/mL).
For CC[C@H](C)[C@H](N)C(=O)N[C@@H](CC(C)C)C(=O)N[C@@H](CCCCN)C(=O)N[C@@H](CCCCN)C(=O)N[C@@H](Cc1c[nH]c2ccccc12)C(=O)N1CCC[C@H]1C(=O)N[C@@H](Cc1c[nH]c2ccccc12)C(=O)N[C@@H](Cc1c[nH]c2ccccc12)C(=O)N1CCC[C@H]1C(=O)N[C@@H](Cc1c[nH]c2ccccc12)C(=O)N[C@@H](CCCN=C(N)N)C(=O)N[C@@H](CCCN=C(N)N)C(=O)N[C@@H](CCCCN)C(N)=O [ILKKWPWWPWRRK], the MIC [2] was 8.51 µM (≈ 16 µg/mL), the MIC [17] was 4.25 µM (≈ 8 µg/mL) and the MIC (Escherichia coli) was 2.13 µM and 4.25 µM. The MIC [18] was 8.51 µM (≈ 16 µg/mL), the MIC (Corynebacterium xerosis) was 0.266 µM (≈ 0.5 µg/mL) and the MIC [19] was 1.06 µM and 0.532 µM. For the same molecule, the MIC (Staphylococcus aureus) was 8.51 µM (≈ 16 µg/mL), the MIC (Pseudomonas aeruginosa) was 8.51 µM (≈ 16 µg/mL) and the MIC [20] was 8.51 µM (≈ 16 µg/mL). For the same molecule, the MIC [6] was > 34 µM, the MIC (Staphylococcus aureus MR) was 8.51 µM (≈ 16 µg/mL) and the MIC (Salmonella typhimurium) was ≥ 34 µM. The MIC [21] was 4.25 µM and 2.13 µM and the MIC (Enterococcus faecalis) was ≥ 34 µM.
With CC[C@H](C)[C@@H]1NC(=O)[C@H](Cc2c[nH]c3ccccc23)NC(=O)CNC(=O)[C@H](CCCN=C(N)N)NC(=O)[C@@H]2CSSC[C@H](NC1=O)C(=O)N[C@@H](Cc1ccccc1)C(=O)N[C@H](C(=O)N[C@H](C(=O)NCC(=O)N[C@@H](CCCN=C(N)N)C(=O)O)C(C)C)CSSC[C@H](NC(=O)[C@H](CC(C)C)NC(=O)[C@H](CCCN=C(N)N)NC(=O)CNC(=O)CNC(=O)[C@@H](N)CCCN=C(N)N)C(=O)N[C@@H](Cc1ccc(O)cc1)C(=O)N2 [RGGRLCYCRGWICFCVGR] the MIC [22] was 0.57 µM (≈ 1.2 µg/mL), the MIC (Escherichia coli) was 0.997 µM (≈ 2.1 µg/mL) and the MIC (Candida albicans) was 14.4 µM (≈ 30.3 µg/mL). For the same molecule, the MIC (Listeria monocytogenes) was 0.902 µM (≈ 1.9 µg/mL) and the MIC [23] was 1.66 µM (≈ 3.49 µg/mL).
CC[C@H](C)[C@H](NC(=O)[C@H](CC(C)C)NC(=O)[C@@H]1CCCN1C(=O)[C@H](CCCCN)NC(=O)[C@H](CCCCN)NC(=O)[C@H](Cc1c[nH]c2ccccc12)NC(=O)[C@@H]1CCCN1C(=O)[C@H](CCCCN)NC(=O)[C@H](CC(C)C)NC(=O)[C@@H]1CCCN1C(=O)[C@H](Cc1c[nH]c2ccccc12)NC(=O)[C@H](CCCN=C(N)N)NC(=O)[C@@H](N)CCCN=C(N)N)C(N)=O [RRWPLKPWKKPLI] gave an MIC [24] of 29.1 µM (≈ 50 µg/mL), an MIC [25] of 3.64 µM (≈ 6.25 µg/mL) and an MIC [26] of 3.64 µM (≈ 6.25 µg/mL).
